These results are taken from US20260158103A1, “USE OF CYCLOSPORINE ANALOGUES AS ANTITHROMBOTIC AGENTS” (Hepion Pharmaceuticals, Inc., priority 2020, published 2026).

In assay [1] the test system is human platelet aggregation. In words: Platelet aggregometry (washed platelets, lumi-aggregometer, % Light Transmittance). It counts as cell-based. The method, then: (§1) Platelet isolation. Blood (40 ml) was obtained from healthy volunteers who had not taken any drugs known to affect platelet function for 2 weeks prior to the study. Prostacyclin-washed platelet suspensions (2.5×10^8/ml) were prepared in Tyrode's buffer.
Platelet aggregometry. Washed platelets (500 μl/test) were pre-incubated (2 minutes at 37° C.) in a lumi-aggregometer (Chronolog, Havertown, PA, USA) with either vehicle (0.1% DMSO) or CRV431 (0.01-3 μM). Platelet aggregation was then initiated with collagen (1 μg/mL) or thrombin (0.1 U/mL) (Chronolog) and monitored by Aggro-Link software for a further 6 minutes. Extent of platelet aggregation was measured as % Light Transmittance between minutes 2 and 6 and determined by Aggro-Link Software.
(§2) Statistics. Statistical analysis was performed using GraphPad Prism 7.0 software. All means are reported with SEM. One-way ANOVA with Dunnet's multiple comparisons test was performed for aggregation studies, and a Repeated-measures One-way ANOVA with Dunnet's multiple comparisons test was performed for procoagulant platelet formation studies. Each N represents an experiment from an independent blood donor. A P-value less than 0.05 was considered significant.

For assay [2], the system named is human procoagulant platelet formation (platelet PS exposure). In words: Procoagulant platelet formation (annexin-V-FITC binding to exposed phosphatidylserine, flow cytometry). In kind it is cell-based. How it is done: as §1
Procoagulant platelet formation studies. […] Procoagulant platelet formation was assessed by measuring annexin-V-FITC binding to exposed phosphatidylserine (PS) by flow cytometry as described previously. Flow cytometry was performed utilizing a BD Fortessa X20 flow cytometer equipped with a blue (488 nm) laser and […] band pass filters to detect FITC. Percent PS-positive platelets were determined post-acquisition using FlowJo software.
as §2

“Also recorded” adds a separate entry of the source. Where a SMILES comes first, the peptide text is derived from it. [ ]: non-standard residue; d: D form. NMeThr(4R-Me,4-(CH2)6NHAc) = CN[C@H](C(=O)O)[C@H](O)[C@H](C)CCCCCCNC(C)=O; NMeL = CN[C@@H](CC(C)C)C(=O)O; NMeV = CN[C@H](C(=O)O)C(C)C; dNMeA = CN[C@H](C)C(=O)O; Abu = CC[C@H](N)C(=O)O

As to `CC[C@@H]1NC(=O)[C@H]([C@H](O)[C@H](C)CCCCCCNC(C)=O)N(C)C(=O)[C@H](C(C)C)N(C)C(=O)[C@H](CC(C)C)N(C)C(=O)[C@H](CC(C)C)N(C)C(=O)[C@@H](C)NC(=O)[C@H](C)NC(=O)[C@H](CC(C)C)N(C)C(=O)[C@H](C(C)C)NC(=O)[C@H](CC(C)C)N(C)C(=O)[C@@H](C)N(C)C1=O` [CRV431] (cyclo(A[dA][NMeL][NMeL][NMeV][NMeThr(4R-Me,4-(CH2)6NHAc)][Abu][dNMeA][NMeL]V[NMeL])), in assay [1] (collagen 1 μg/mL, CRV431 0.01-3 μM, washed human platelets, N=10, P>0.05), the “inhibition of platelet aggregation induced by collagen” value is recorded as “did not inhibit platelet aggregation”. In addition, the “inhibition of platelet aggregation at the highest concentration tested” value in assay [1] (single blood donor (FIG. 3A), highest concentration tested) is recorded as “does not inhibit platelet aggregation”. The “inhibition of platelet aggregation induced by thrombin” value in assay [1] (thrombin 0.1 U/mL, CRV431 0.01-3 μM, washed human platelets, N=9, P>0.05) is “did not inhibit platelet aggregation”. Further, the “inhibition of platelet PS-exposure, a marker of procoagulant platelet formation” value in assay [2] (CRV431 at 1 and 3 μM, activated by collagen and thrombin, N=8, P<0.01 / P<0.001 vs. vehicle control) is “significantly inhibited platelet PS-exposure”. Besides, the “percentage of phosphatidylserine (PS)-positive platelets” value in assay [2] (increasing concentrations of CRV431, induced by collagen (10 μg/ml) and thrombin (0.1 U/ml), flow cytometry) is recorded as “reduce the percentage of phosphatidylserine (PS)-positive platelets”.
On to `CC(=O)Oc1ccccc1C(=O)O` [acetylsalicylic acid, reference compound], for which the “inhibition of platelet aggregation (positive control)” value in assay [1] (single blood donor (FIG. 3B), agonist and concentration not given) is reported as “effectively inhibited aggregation; also recorded: platelet aggregation is inhibited”.
